From patent US4649215A, “Aliphatic thioethers” (Ciba-Geigy Corporation, priority 1984, dated 1987)
Counter-ions that a name gives are not always drawn.

Assays:
leucotrienes = experiment: leucotriene-antagonistic activity (test not specified); settings: reverse absolute configuration at C-5 and C-6 compared with natural leucotrienes
Source text: Thus, in various test arrangements in vitro they have a clear leucotriene-antagonistic action.
As already mentioned above, there is a general analogy between the structure of the compounds of the formula I according to the invention and that of leucotrienes, especially in the obligatory trans-configuration of the vicinal S- and O-atoms mentioned at the beginning and the total structure of the mercaptoalkanoic acid residue (A) (especially in its typical form of a cysteine peptide). They differ from leucotrienes essentially in lacking the characteristic terminal carboxy group in the olefinic radical (B).

[1] = target: phospholipase A2 from human leucocytes; experiment: inhibition of phospholipase A2 obtained from human leucocytes; type: biochemical; settings: human leucocyte enzyme, 37° 1 hour, pH 7, 14C-oleic acid labelled E. coli phospholipides
Procedure: Human neutrophilic polymorphonuclear leucocytes are isolated from "buffy coats" by multistage fractional sedimentation and deep-frozen. Phospholipase A2 is extracted from the cell suspension by homogenisation with the addition of icecold 0.36N H2 SO4 in 2N NaCl, and the supernatant obtained after centrifugation at 10,000× g is dialysed against sodium acetate buffer pH 4.5.
In order to determine the enzyme activity, enzyme (10-30 μg protein) is incubated at 37° for 1 hour in 0.1M tris/HCl buffer pH 7 with the addition of 1 mM CaCl2 and substrate consisting of phospholipides (2 μm) of Escherichia coli that have been radioactively labelled with ^14 C-oleic acid by means of biosynthesis. The reaction is stopped by the addition of Dole reagent (isopropanol/heptane/1N H2 SO4 40:10:1, v/v) and the ^14 C-oleic acid selectively released by phospholipase A2 is extracted. Substrate also extracted at the same time is completely removed by filtering the extract through a column of silica gel. The ^14 C-oleic acid in the eluate is determined by radiometry.
In order to ascertain the inhibitory action of test substances on phospholipase A2, these substances are added in the form of solutions in water, dimethyl sulphoxide (final concentration in the mixture up to 5% v/v) or ethanol (final concentration in the mixture up to 2.5% v/v) to the incubation mixture. […]

[2] = target: phospholipase C from human thrombocytes; experiment: inhibition of phospholipase C obtained from human thrombocytes; type: biochemical; settings: human thrombocyte enzyme, 37° 5 minutes, pH 6, phosphatidyl-[14C]-inositol
Procedure: To ascertain the enzyme activity, enzyme (20-100 μg protein) is incubated at 37° for 5 minutes in 0.025M tris/malate buffer pH 6 with the addition of 0.2 mM CaCl2 and 0.02 mM radioactively labelled substrate, phosphatidyl-[^14 C]-inositol. The reaction is stopped by extraction by shaking with CHCl3 /CH3 OH 2:1 (v/v). In the course of this unconsumed substrate is extracted into the organic phase, whilst the reaction product, ^14 C-inositol phosphate, remains in the aqueous phase and can be measured by radiometry of an aliquot.
In order to ascertain the inhibitory action of test substances on phospholipase C, these substances are added in the form of solutions in water, dimethyl sulphoxide (final concentration in the mixture up to 5%, v/v) or ethanol (final concentration in the mixture up to 2.5%, v/v) to the incubation mixture. The strength of action of the test substances is expressed by the IC50, that is to say the concentration that causes a 50% inhibition of the control activity. The IC50 is ascertained on a graph by plotting the percentage inhibition on the ordinate against the log of the concentration (μM) on the abscissa.

IC50 [1] [µM] | IC50 [2] [µM] | Compound | activity (leucotriene antagonism), in words (leucotrienes)
 |  | CCCCCCCC\C=C/C=C/C=C/[C@H](SCC(NC(=O)C(F)(F)F)C(=O)NCC(=O)O)[C@H](O)CCCC (stereo partly drawn) [Example 60A, Sodium salt of N-[S-5(R),6(S)-5-hydroxy-7,9-trans-11-cis-icosatrien-6-yl-N-trifluoroacetylcysteinyl]-glycine] | highly active
1600 | 20 | CCN(CC)CCCC(C)Nc1c2ccc(Cl)cc2nc2ccc(OC)cc12 (stereo not drawn) [mepacrine] | 
